According to patent EP4745137A1 (Gluetacs Therapeutics (Shanghai) Co., Ltd., priority 2023, dated 2025):

How the values were obtained:
WEE1 = molecular target: T1, WEE1 (Homo sapiens, UniProt P30291+Q96SW2); test: Western-blot assay of substrate protein degradation in hPBMCs, WEE1; assay type: cell-based; settings: 24 hours of compound treatment
T1 construct: endogenous in cells; host or cells: hPBMCs (Milecell Biotechnologies)

[1] = molecular target: T2, human Cereblon WT GST-tagged protein (Homo sapiens, UniProt Q96SW2); test: CRBN-binding affinity by HTRF (CEREBLON BINDING kit); settings: HTRF inhibitory activity, CEREBLON BINDING kit; read-out: HTRF IC50
T2 construct: purchased CISBIO 64BDCRBNPEH

[2] = tested on: Human acute T lymphocytic leukemia cells (Molt-4); test: Tumor cell proliferation inhibition (CellTiter-Meiluncell Luminescent Cell Viability Assay), Molt-4; settings: MOLT-4, 96 h, read-out: inhibitory activity (IC50, nM) against tumor cells proliferation, Molt 4
CK1α = molecular target: T3, CK1α (Homo sapiens, UniProt P48729+Q96SW2); test: Western-blot assay of substrate protein degradation in hPBMCs, CK1α; assay type: cell-based; settings: 24 hours of compound treatment
T3 construct: endogenous in cells; host or cells: hPBMCs (Milecell Biotechnologies)

IKZF2 = molecular target: T4, IKZF2 (Homo sapiens, UniProt Q96SW2+Q9UKS7); test: Western-blot assay of substrate protein degradation in hPBMCs, IKZF2; assay type: cell-based; settings: 24 hours of compound treatment
T4 construct: endogenous in cells; host or cells: hPBMCs (Milecell Biotechnologies)

[3] = tested on: Human breast cancer cells (MDA-MB-231); test: Tumor cell proliferation inhibition (CellTiter-Meiluncell Luminescent Cell Viability Assay), MDA-MB-231; settings: for IC50: MDA-MB-231, 96 h, read-out: inhibitory activity (IC50, nM) against tumor cells proliferation, MDA-MB-231; for inhibition at 0.01 µM: MDA-MB-231, read-out: Inhibition rate (%) at 10 nM; for inhibition at 0.5 µM: MDA-MB-231, read-out: Inhibition rate (%) at 500 nM
IKZF1 = molecular target: T5, IKZF1 (Homo sapiens, UniProt Q13422+Q96SW2); test: Western-blot assay of substrate protein degradation in hPBMCs, IKZF1; assay type: cell-based; settings: 24 hours of compound treatment
T5 construct: endogenous in cells; host or cells: hPBMCs (Milecell Biotechnologies)

NCI-H1975 = test: Tumor cell proliferation inhibition (CellTiter-Meiluncell Luminescent Cell Viability Assay), NCI-H1975; settings: Homo sapiens, NCI-H1975, 96 h, read-out: inhibitory activity (IC50, nM) against tumor cells proliferation, H1975
Method: The tumor cells used herein were cultured in a cell culture medium listed in table 2 at 37°C in an incubator with 5% CO2. Prior to experimentation, all cell lines used were correctly identified by STR profiling, and tested negative for mycoplasma contamination using a mycoplasma detection kit through routine screenings.
On the following day, the test compounds of the present disclosure were subjected to serial dilution. […] Subsequently, 0.5 µL of the test compound dilution was transferred into the 96-well plate containing the cells, with each well containing 100 µL of cell culture medium. […] Into the 96-well plate, the diluted test compounds and corresponding detection reagents were added, resulting in final test compound concentrations of 500 nM and 10 nM, respectively. The experimental procedure is described below using the diluted 2 µM test compound as an example.
After the cells were treated with the compounds of the present disclosure for a specified period (the treatment durations were shown in Table 3), the cell viability assay reagent was added to the culture medium according to the kit's instructions to determine cell viability. […] All controls were treated using the same procedure as the compounds of the present disclosure. The growth inhibition curves for the compounds of the present disclosure were plotted using Prism GraphPad software, and the IC50 values were calculated therefrom.

IKZF3 = molecular target: T6, IKZF3 (Homo sapiens, UniProt Q96SW2+Q9UKT9); test: Western-blot assay of substrate protein degradation in hPBMCs, IKZF3; assay type: cell-based; settings: 24 hours of compound treatment
T6 construct: endogenous in cells; host or cells: hPBMCs (Milecell Biotechnologies)

GSPT1 = molecular target: T7, GSPT1 (Homo sapiens, UniProt P15170+Q96SW2); test: Western-blot assay of substrate protein degradation in hPBMCs, GSPT1; assay type: cell-based; settings: 24 hours of compound treatment
T7 construct: endogenous in cells; host or cells: hPBMCs (Milecell Biotechnologies)

[4] = compounds tested at 50 nM and 500 nM (concentration of the table not stated)
[5] = 50 nM and 500 nM tested (concentration behind the class not stated)

T1 sequence (P30291 whole entry): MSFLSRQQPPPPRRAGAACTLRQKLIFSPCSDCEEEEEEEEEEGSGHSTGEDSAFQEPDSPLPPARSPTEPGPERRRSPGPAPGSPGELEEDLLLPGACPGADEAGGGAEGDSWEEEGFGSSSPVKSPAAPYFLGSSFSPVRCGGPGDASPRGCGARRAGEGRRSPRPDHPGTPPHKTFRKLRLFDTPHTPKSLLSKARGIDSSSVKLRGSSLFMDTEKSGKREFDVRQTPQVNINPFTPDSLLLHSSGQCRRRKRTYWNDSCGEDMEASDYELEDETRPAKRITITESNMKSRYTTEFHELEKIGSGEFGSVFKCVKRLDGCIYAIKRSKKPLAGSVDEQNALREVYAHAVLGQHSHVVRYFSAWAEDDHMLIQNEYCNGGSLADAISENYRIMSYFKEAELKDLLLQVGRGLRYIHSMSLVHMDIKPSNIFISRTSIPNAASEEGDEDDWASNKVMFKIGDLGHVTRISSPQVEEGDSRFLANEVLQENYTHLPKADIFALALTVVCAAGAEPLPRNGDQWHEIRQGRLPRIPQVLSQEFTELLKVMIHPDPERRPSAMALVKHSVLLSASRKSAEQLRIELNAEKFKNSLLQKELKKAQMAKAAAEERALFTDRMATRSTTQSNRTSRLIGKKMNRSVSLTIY
T1 sequence (Q96SW2 whole entry): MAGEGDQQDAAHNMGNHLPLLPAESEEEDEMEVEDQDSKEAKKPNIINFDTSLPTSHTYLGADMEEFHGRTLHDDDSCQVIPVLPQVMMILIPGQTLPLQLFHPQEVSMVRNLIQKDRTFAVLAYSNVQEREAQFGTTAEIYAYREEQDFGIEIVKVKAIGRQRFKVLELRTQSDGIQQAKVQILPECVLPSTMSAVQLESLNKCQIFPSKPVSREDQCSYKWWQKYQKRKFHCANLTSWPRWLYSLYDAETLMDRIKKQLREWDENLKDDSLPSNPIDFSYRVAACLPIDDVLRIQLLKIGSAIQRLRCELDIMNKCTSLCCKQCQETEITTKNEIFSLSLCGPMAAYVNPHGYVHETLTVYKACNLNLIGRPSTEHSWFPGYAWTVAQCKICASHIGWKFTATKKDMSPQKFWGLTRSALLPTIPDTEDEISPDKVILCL
T1 sequence (Q16531 whole entry partner): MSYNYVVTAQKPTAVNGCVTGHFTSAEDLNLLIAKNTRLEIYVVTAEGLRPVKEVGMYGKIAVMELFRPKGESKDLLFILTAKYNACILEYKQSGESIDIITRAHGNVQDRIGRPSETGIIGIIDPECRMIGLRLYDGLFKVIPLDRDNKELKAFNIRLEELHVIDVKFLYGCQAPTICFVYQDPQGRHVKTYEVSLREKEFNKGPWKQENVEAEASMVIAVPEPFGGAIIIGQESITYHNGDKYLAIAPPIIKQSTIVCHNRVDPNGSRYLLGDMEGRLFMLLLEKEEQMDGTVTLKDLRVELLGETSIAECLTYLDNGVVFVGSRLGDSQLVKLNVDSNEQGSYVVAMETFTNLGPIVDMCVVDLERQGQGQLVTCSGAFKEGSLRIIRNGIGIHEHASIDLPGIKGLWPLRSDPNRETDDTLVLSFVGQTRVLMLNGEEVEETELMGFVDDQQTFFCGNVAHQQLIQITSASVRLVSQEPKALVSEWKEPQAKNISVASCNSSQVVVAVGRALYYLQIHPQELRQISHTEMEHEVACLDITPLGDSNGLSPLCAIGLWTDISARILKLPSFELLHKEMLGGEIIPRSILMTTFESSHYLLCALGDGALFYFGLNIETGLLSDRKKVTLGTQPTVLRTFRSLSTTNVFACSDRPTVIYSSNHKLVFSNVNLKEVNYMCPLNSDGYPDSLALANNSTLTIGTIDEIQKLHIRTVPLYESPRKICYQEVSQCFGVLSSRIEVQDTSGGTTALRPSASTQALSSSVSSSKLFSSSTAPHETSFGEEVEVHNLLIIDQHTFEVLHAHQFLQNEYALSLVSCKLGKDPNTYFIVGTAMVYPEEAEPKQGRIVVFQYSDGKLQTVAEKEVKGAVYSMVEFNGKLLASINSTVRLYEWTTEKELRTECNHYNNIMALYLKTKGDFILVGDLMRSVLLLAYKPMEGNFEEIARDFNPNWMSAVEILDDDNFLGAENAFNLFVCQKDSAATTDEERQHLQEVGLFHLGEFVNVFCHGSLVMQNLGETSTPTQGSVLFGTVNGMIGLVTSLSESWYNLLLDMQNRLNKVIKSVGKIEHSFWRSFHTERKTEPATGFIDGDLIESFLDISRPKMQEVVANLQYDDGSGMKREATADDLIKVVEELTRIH
T6 sequence (Q9UKT9 whole entry): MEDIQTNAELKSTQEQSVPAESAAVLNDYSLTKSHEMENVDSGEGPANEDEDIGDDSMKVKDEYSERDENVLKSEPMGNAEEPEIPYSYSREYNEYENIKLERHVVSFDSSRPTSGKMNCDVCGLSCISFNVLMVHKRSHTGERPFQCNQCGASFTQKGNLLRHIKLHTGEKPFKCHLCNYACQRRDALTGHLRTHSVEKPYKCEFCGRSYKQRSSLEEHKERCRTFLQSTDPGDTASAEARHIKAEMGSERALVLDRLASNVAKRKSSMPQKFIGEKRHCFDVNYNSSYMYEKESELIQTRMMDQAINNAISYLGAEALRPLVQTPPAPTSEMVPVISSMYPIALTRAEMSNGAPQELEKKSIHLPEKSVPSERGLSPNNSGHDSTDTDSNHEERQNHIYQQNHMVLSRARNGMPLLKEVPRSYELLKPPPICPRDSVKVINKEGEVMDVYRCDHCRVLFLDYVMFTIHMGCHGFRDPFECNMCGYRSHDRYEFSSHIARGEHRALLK
T6 sequence (Q96SW2 whole entry): as the sequence (Q96SW2 whole entry) above
T6 sequence (Q16531 whole entry partner): as the sequence (Q16531 whole entry partner) above
T5 sequence (Q13422 whole entry): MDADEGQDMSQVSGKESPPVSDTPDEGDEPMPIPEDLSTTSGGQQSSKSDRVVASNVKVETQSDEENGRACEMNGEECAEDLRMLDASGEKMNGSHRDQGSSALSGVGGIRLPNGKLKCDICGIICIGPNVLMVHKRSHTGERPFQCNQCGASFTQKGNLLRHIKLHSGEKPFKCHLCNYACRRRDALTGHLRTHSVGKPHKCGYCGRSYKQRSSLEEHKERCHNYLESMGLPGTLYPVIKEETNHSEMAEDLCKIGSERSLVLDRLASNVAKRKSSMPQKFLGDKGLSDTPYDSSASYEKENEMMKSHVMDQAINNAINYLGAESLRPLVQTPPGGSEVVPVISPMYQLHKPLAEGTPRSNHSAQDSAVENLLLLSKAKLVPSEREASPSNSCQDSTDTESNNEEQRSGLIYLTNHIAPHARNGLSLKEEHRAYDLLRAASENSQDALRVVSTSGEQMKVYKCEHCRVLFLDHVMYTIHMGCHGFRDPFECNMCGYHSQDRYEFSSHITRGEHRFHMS
T5 sequence (Q96SW2 whole entry): as the sequence (Q96SW2 whole entry) above
T5 sequence (Q16531 whole entry partner): as the sequence (Q16531 whole entry partner) above
T4 sequence (Q9UKS7 whole entry): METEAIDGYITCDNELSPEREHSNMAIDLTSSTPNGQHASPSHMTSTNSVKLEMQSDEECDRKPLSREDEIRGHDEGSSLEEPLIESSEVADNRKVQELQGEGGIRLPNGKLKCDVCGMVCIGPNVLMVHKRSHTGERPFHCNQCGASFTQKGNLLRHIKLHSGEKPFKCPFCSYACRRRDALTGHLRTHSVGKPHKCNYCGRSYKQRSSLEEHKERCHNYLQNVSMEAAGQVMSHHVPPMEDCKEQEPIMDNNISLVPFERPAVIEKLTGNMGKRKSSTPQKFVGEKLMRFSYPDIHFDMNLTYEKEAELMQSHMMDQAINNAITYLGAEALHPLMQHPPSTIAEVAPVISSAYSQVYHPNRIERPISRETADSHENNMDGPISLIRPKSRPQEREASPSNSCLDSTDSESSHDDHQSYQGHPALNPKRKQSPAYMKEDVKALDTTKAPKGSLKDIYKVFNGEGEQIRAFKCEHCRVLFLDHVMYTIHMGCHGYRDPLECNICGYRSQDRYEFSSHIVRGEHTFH
T4 sequence (Q96SW2 whole entry): as the sequence (Q96SW2 whole entry) above
T4 sequence (Q16531 whole entry partner): as the sequence (Q16531 whole entry partner) above
T2 sequence (Q96SW2 whole entry): as the sequence (Q96SW2 whole entry) above
T7 sequence (P15170 whole entry): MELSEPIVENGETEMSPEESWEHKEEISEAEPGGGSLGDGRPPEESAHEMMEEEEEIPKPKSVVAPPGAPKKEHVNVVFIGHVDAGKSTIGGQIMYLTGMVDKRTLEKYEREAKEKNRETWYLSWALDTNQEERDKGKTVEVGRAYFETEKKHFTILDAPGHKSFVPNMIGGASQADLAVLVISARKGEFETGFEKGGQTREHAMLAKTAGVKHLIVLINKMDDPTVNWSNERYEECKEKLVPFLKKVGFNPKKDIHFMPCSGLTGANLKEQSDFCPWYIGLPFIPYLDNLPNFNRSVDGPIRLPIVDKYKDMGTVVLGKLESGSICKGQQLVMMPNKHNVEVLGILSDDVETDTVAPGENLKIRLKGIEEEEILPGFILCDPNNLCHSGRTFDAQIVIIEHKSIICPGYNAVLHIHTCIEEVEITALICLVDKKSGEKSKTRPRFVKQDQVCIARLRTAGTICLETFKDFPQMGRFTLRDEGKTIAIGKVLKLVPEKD
T7 sequence (Q96SW2 whole entry): as the sequence (Q96SW2 whole entry) above
T7 sequence (Q16531 whole entry partner): as the sequence (Q16531 whole entry partner) above

| SMILES | IC50 [1] [nM] | IC50 [2] [nM] | IC50 (NCI-H1975) [nM] | Weel substrate protein remaining % (WEE1; [4]) | CK1a substrate protein remaining % (CK1α; [4]) | IKZF2 substrate protein remaining % (IKZF2; [4]) | IC50 [3] [nM] | IKZF 1 substrate protein remaining % (IKZF1; [4]) | IKZF3 substrate protein remaining % (IKZF3; [4]) | GSPT1 substrate protein remaining % (GSPT1; [4]) | inhibition at 0.01 µM [3] [%] | inhibition at 0.5 µM [3] [%] | Weel substrate protein remaining % (WEE1; [5]) | CK1a substrate protein remaining % (CK1α; [5]) | IKZF2 substrate protein remaining % (IKZF2; [5]) | IKZF 1 substrate protein remaining % (IKZF1; [5]) | IKZF3 substrate protein remaining % (IKZF3; [5]) | GSPT1 substrate protein remaining % (GSPT1; [5]) |
| --- | --- | --- | --- | --- | --- | --- | --- | --- | --- | --- | --- | --- | --- | --- | --- | --- | --- | --- |
| O=C1CCC(N2Cc3cc(CN4CCC(c5cccc6c(F)cccc56)CC4)ccc3C2=O)C(=O)N1 (stereo not shown) [GT-04664, 3-(5-((4-(5-fluoronaphthalen-1-yl)piperidin-1-yl)methyl)-1-oxoisoindolin-2-yl)piperidine-2,6-dione] | 500 to 1000 | 100 to 500 | – | A (0% ≤ substrate protein remaining % ≤ 80%) | A (0% ≤ substrate protein remaining % ≤ 80%) | A (0% ≤ substrate protein remaining % ≤ 80%) | – | A (0% ≤ substrate protein remaining % ≤ 80%) | A (0% ≤ substrate protein remaining % ≤ 80%) | A (0% ≤ substrate protein remaining % ≤ 80%) | – | – | – | – | – | – | – | – |
| Cc1ccsc1C1=CCN(Cc2ccc3c(c2)C(=O)N(C2CCC(=O)NC2=O)C3=O)CC1 (stereo not shown) [GT-04732, 2-(2,6-dioxopiperidin-3-yl)-5-((4-(3-methylthiophen-2-yl)-3,6-dihydropyridin-1(2H)-yl)methyl)isoindoline-1,3-dione] | 500 to 1000 | 50 to 100 | – | A (0% ≤ substrate protein remaining % ≤ 80%) | A (0% ≤ substrate protein remaining % ≤ 80%) | B (80%< substrate protein remaining %≤ 100%) | 500 to 1000 | B (80%< substrate protein remaining %≤ 100%) | B (80%< substrate protein remaining %≤ 100%) | A (0% ≤ substrate protein remaining % ≤ 80%) | – | – | – | – | – | – | – | – |
| O=C1CCC(N2C(=O)c3ccc(CN4CCN(c5ncccc5Cl)CC4)cc3C2=O)C(=O)N1 (stereo not shown) [GT-07843, 5-((4-(3-chloropyridin-2-yl)piperazin-1-yl)methyl)-2-(2,6-dioxopiperidin-3-yl)isoindoline-1,3-dione] | – | – | – | – | – | – | – | – | – | – | 30 to 40 | 30 to 40 | – | – | – | – | – | – |
| O=C1CCC(N2C(=O)c3ccc(CN4CCN(c5nc(N6CCCC6)nc6c5SCC6)CC4)cc3C2=O)C(=O)N1 (stereo not shown) [GT-08004, 2-(2,6-dioxopiperidin-3-yl)-5-((4-(2-(pyrrolidin-1-yl)-6,7-dihydrothieno[3,2-d]pyrimidin-4-yl)piperazin-1-yl)methyl)isoindoline-1,3-dione] | – | – | – | – | – | – | – | – | – | – | 30 to 40 | 40 to 50 | B (80%< substrate protein remaining %≤ 100%) | B (80%< substrate protein remaining %≤ 100%) | A (0% ≤ substrate protein remaining % ≤ 80%) | A (0% ≤ substrate protein remaining % ≤ 80%) | A (0% ≤ substrate protein remaining % ≤ 80%) | A (0% ≤ substrate protein remaining % ≤ 80%) |
| O=C1CCC(N2C(=O)c3ccc(CN4CCN(c5nc(N6CCC6)nc6c5SCC6)CC4)cc3C2=O)C(=O)N1 (stereo not shown) [GT-08005, 5-((4-(2-(azetidin-1-yl)-6,7-dihydrothieno[3,2-d]pyrimidin-4-yl)piperazin-1-yl)methyl)-2-(2,6-dioxopiperidin-3-yl)isoindoline-1,3-dione] | – | – | – | – | – | – | – | – | – | – | 20 to 30 | 30 to 40 | B (80%< substrate protein remaining %≤ 100%) | B (80%< substrate protein remaining %≤ 100%) | A (0% ≤ substrate protein remaining % ≤ 80%) | A (0% ≤ substrate protein remaining % ≤ 80%) | A (0% ≤ substrate protein remaining % ≤ 80%) | B (80%< substrate protein remaining %≤ 100%) |

Second part, led by results:

| IC50 [1] [nM] | IC50 [2] [nM] | IC50 (NCI-H1975) [nM] | SMILES | Weel substrate protein remaining % (WEE1; [4]) | CK1a substrate protein remaining % (CK1α; [4]) | IKZF2 substrate protein remaining % (IKZF2; [4]) | IC50 [3] [nM] | IKZF 1 substrate protein remaining % (IKZF1; [4]) | IKZF3 substrate protein remaining % (IKZF3; [4]) | GSPT1 substrate protein remaining % (GSPT1; [4]) | inhibition at 0.01 µM [3] [%] | inhibition at 0.5 µM [3] [%] | Weel substrate protein remaining % (WEE1; [5]) | CK1a substrate protein remaining % (CK1α; [5]) | IKZF2 substrate protein remaining % (IKZF2; [5]) | IKZF 1 substrate protein remaining % (IKZF1; [5]) | IKZF3 substrate protein remaining % (IKZF3; [5]) | GSPT1 substrate protein remaining % (GSPT1; [5]) |
| --- | --- | --- | --- | --- | --- | --- | --- | --- | --- | --- | --- | --- | --- | --- | --- | --- | --- | --- |
| 500 to 1000 | 10 to 50 | 100 to 500 | O=C1CCC(N2Cc3cc(CN4CCC(c5c[nH]c6ncccc56)CC4)ccc3C2=O)C(=O)N1 (stereo not shown) [GT-04603, 3-(5-((4-(1H-pyrrolo[2,3-b]pyridin-3-yl)piperidin-1-yl)methyl)-1-oxoisoindolin-2-yl)piperidine-2,6-dione] | A (0% ≤ substrate protein remaining % ≤ 80%) | A (0% ≤ substrate protein remaining % ≤ 80%) | A (0% ≤ substrate protein remaining % ≤ 80%) | 100 to 500 | A (0% ≤ substrate protein remaining % ≤ 80%) | A (0% ≤ substrate protein remaining % ≤ 80%) | A (0% ≤ substrate protein remaining % ≤ 80%) | – | – | – | – | – | – | – | – |
| < 500 | 500 to 1000 | – | O=C1CCC(N2Cc3cc(CN4CC(c5ccnc6cc(F)ccc56)C4)ccc3C2=O)C(=O)N1 (stereo not shown) [GT-04651, 3-(5-((3-(7-fluoroquinolin-4-yl)azetidin-1-yl)methyl)-1-oxoisoindolin-2-yl)piperidine-2,6-dione] | B (80%< substrate protein remaining %≤ 100%) | A (0% ≤ substrate protein remaining % ≤ 80%) | A (0% ≤ substrate protein remaining % ≤ 80%) | – | A (0% ≤ substrate protein remaining % ≤ 80%) | A (0% ≤ substrate protein remaining % ≤ 80%) | A (0% ≤ substrate protein remaining % ≤ 80%) | – | – | – | – | – | – | – | – |
| 500 to 1000 | 100 to 500 | – | Cc1csc2ncnc(C3=CCN(Cc4ccc5c(c4)CN(C4CCC(=O)NC4=O)C5=O)CC3)c12 (stereo not shown) [GT-04703, 3-(5-((4-(5-methylthieno[2,3-d]pyrimidin-4-yl)-3,6-dihydropyridin-1(2H)-yl)methyl)-1-oxoisoindolin-2-yl)piperidine-2,6-dione] | B (80%< substrate protein remaining %≤ 100%) | A (0% ≤ substrate protein remaining % ≤ 80%) | A (0% ≤ substrate protein remaining % ≤ 80%) | – | A (0% ≤ substrate protein remaining % ≤ 80%) | A (0% ≤ substrate protein remaining % ≤ 80%) | A (0% ≤ substrate protein remaining % ≤ 80%) | – | – | – | – | – | – | – | – |
| < 500 | 500 to 1000 | – | O=C1CCC(N2Cc3cc(CN4CCN(c5nc(N6CCOCC6)nc6c5SCC6)CC4)ccc3C2=O)C(=O)N1 (stereo not shown) [GT-04710, 3-(5-((4-(2-morpholino-6,7-dihydrothieno[3,2-d]pyrimidin-4-yl)piperazin-1-yl)methyl)-1-oxoisoindolin-2-yl)piperidine-2,6-dione] | B (80%< substrate protein remaining %≤ 100%) | A (0% ≤ substrate protein remaining % ≤ 80%) | B (80%< substrate protein remaining %≤ 100%) | – | B (80%< substrate protein remaining %≤ 100%) | A (0% ≤ substrate protein remaining % ≤ 80%) | A (0% ≤ substrate protein remaining % ≤ 80%) | – | – | – | – | – | – | – | – |
| 500 to 1000 | 100 to 500 | – | O=C1CCC(N2Cc3cc(CN4CC(n5cnc6cc(F)ccc65)C4)ccc3C2=O)C(=O)N1 (stereo not shown) [GT-04716, 3-(5-((3-(5-fluoro-1H-benzo[d]imidazol-1-yl)azetidin-1-yl)methyl)-1-oxoisoindolin-2-yl)piperidine-2,6-dione] | B (80%< substrate protein remaining %≤ 100%) | B (80%< substrate protein remaining %≤ 100%) | B (80%< substrate protein remaining %≤ 100%) | – | B (80%< substrate protein remaining %≤ 100%) | B (80%< substrate protein remaining %≤ 100%) | A (0% ≤ substrate protein remaining % ≤ 80%) | – | – | – | – | – | – | – | – |
| 500 to 1000 | 10 to 50 | – | Cc1nc(C2CCN(Cc3ccc4c(c3)CN(C3CCC(=O)NC3=O)C4=O)CC2)c2ccsc2n1 (stereo not shown) [GT-04726, 3-(5-((4-(2-methylthieno[2,3-d]pyrimidin-4-yl)piperidin-1-yl)methyl)-1-oxoisoindolin-2-yl)piperidine-2,6-dione] | A (0% ≤ substrate protein remaining % ≤ 80%) | A (0% ≤ substrate protein remaining % ≤ 80%) | A (0% ≤ substrate protein remaining % ≤ 80%) | – | A (0% ≤ substrate protein remaining % ≤ 80%) | A (0% ≤ substrate protein remaining % ≤ 80%) | A (0% ≤ substrate protein remaining % ≤ 80%) | – | – | – | – | – | – | – | – |
